In patent publication US20260166159A1, “KRAS G12D DEGRADATION AGENT, AND PREPARATION METHOD AND USE THEREFOR” (LEADINGTAC PHARMACEUTICAL (SHAOXING) CO., LTD., priority 2022, published 2026) one finds IC50, DC50 and Dmax data, which are given here for eleven compounds.

Common to all, as to type: cell-based
Experiment [1] has as its system KRAS G12D mutant human lung cancer cell A427. In words: 3D cell proliferation inhibition assay, A427. The following applies: A-427, 168 h, A427, 7 days, CTG. The method, boiled down:
(§1)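 IC50 values derive from nonlinear fits of log dose against percent inhibition of 7-day 3D proliferation. Readout: CTG luminescence. Plating density: 5×10^2 cells/well in low-adsorption plates. Dosing: 10000–0.026 nM final, 0.2% DMSO.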

Experiment [2] deals with KRAS G12D mutant human gastric cancer cell AGS. In words: 3D cell proliferation inhibition assay, AGS. The following applies: 168 h, 7 days, CTG. The method, boiled down:
as §1

For the next experiment, the target named is T1, KRAS-G12D (Homo sapiens, UniProt P01116, G12D).
T1 construct: endogenous in cells; host or cells: A-427 (ATCC), AGS, AsPc-1, Panc 04.03
In words: KRAS-G12D degradation assay (Western Blot), A-427 cells. Conditions: A427 cells, 24 h; for Dmax: A-427. The method, boiled down:
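Each KRAS G12D mutant line (A-427, AGS, AsPc-1, Panc 04.03) was seeded at 5×10^5 cells/well and treated 24 h at 37 °C with 0.03–3000 nM compound (final DMSO 0.25%). KRAS in lysates was measured by Western blot, normalized to β-actin and compared with controls, giving DC50 and Dmax from curve fits.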

T1 sequence (P01116 1-188 isoform P01116-2 G12D): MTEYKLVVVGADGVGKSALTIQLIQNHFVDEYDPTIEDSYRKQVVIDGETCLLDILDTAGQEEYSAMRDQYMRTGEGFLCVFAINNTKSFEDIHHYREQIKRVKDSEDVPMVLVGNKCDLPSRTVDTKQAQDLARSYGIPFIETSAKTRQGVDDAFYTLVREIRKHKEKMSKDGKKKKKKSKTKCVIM

`C#Cc1c(F)ccc2cc(O)cc(-c3ncc4c(N5CC6CCC(C5)N6)nc(OCC5(CN6CCN(CCCC7CCN(C(=O)c8ccc(Cl)c(N9CCC(=O)NC9=O)c8)CC7)CC6)CC5)nc4c3F)c12` [Example 4, 1-(5-(4-(3-(4-((1-(((4-(3,8-diazabicyclo[3.2.1]octan-3-yl)-7-(8-ethynyl-7-fluoro-3-hydroxynaphthalen-1-yl)-8-fluoropyrido[4,3-d]pyrimidin-2-yl)oxy)methyl)cyclopropyl)methyl)piperazin-1-yl)propyl)piperidine-1-carbonyl)-2-chlorophenyl)dihydropyrimidine-2,4(1H,3H)-dione]: the IC50 (in general, the midpoint of a concentration-inhibition curve) in experiment [1] (class symbols) lay within 0.1 to 0.5 µM. In experiment [2] (class symbols), this compound had an IC50 of 0.05 to 0.1 µM. Besides, at KRAS-G12D (class symbols), the DC50 (commonly the concentration at which degradation of the target reaches its halfway point) is at most 0.05 µM and the Dmax (as a rule, the greatest extent of degradation seen) lay within 80 to 100%.
The compound `C#Cc1c(F)ccc2cc(O)cc(-c3ncc4c(N5CC6CCC(C5)N6)nc(OCC(C)CN5CCN(CC6CCC7(CC6)CCN(C(=O)c6ccc(OC)c(N8CCC(=O)NC8=O)c6)CC7)CC5)nc4c3F)c12` (centres unmarked) [Example 84, 1-(5-(9-((4-(3-((4-(3,8-diazabicyclo[3.2.1]octan-3-yl)-7-(8-ethynyl-7-fluoro-3-hydroxynaphthalen-1-yl)-8-fluoropyrido[4,3-d]pyrimidin-2-yl)oxy)-2-methylpropyl)piperazin-1-yl)methyl)-3-azaspiro[5.5]undecane-3-carbonyl)-2-methoxyphenyl)dihydropyrimidine-2,4(1H,3H)-dione] yielded an IC50 in experiment [1] (numeric values) of 0.0065 µM. For the same compound, in experiment [2] (numeric values), the IC50 turned out to be 0.00105 µM. Besides, on KRAS-G12D (numeric values), half-maximal degradation (DC50) was put at 0.00467 µM and the Dmax came out at 86.3%.
In turn, `C#Cc1c(F)ccc2cc(O)cc(-c3ncc4c(N5CC6CCC(C5)N6)nc(OCC5(CN6CCN(CCCC7CCC8(CC7)CCN(C(=O)c7ccc(Cl)c(N9CCC(=O)NC9=O)c7)CC8)CC6)CC5)nc4c3F)c12` [Example 7, 1-(5-(9-(3-(4-((1-(((4-(3,8-diazabicyclo[3.2.1]octan-3-yl)-7-(8-ethynyl-7-fluoro-3-hydroxynaphthalen-1-yl)-8-fluoropyrido[4,3-d]pyrimidin-2-yl)oxy)methyl)cyclopropyl)methyl)piperazin-1-yl)propyl)-3-azaspiro[5.5]undecane-3-carbonyl)-2-chlorophenyl)dihydropyrimidine-2,4(1H,3H)-dione] yielded an IC50 in experiment [1] (class symbols) of at most 0.05 µM. In experiment [2] (class symbols), this compound displayed an IC50 of at most 0.05 µM. Further, on KRAS-G12D (class symbols), the DC50 was at most 0.05 µM and the Dmax was in the range of 80 to 100%.
In the case of `C#Cc1c(F)ccc2cc(O)cc(-c3ncc4c(N5CC6CCC(C5)N6)nc(OCC5(CN6CCN(CCCCC7CCC8(CC7)CCN(C(=O)c7ccc(Cl)c(N9CCC(=O)NC9=O)c7)CC8)CC6)CC5)nc4c3F)c12` [Example 31, 1-(5-(9-(4-(4-((1-(((4-(3,8-diazabicyclo[3.2.1]octan-3-yl)-7-(8-ethynyl-7-fluoro-3-hydroxynaphthalen-1-yl)-8-fluoropyrido[4,3-d]pyrimidin-2-yl)oxy)methyl)cyclopropyl)methyl)piperazin-1-yl)butyl)-3-azaspiro[5.5]undecane-3-carbonyl)-2-chlorophenyl)dihydropyrimidine-2,4(1H,3H)-dione], in experiment [1] (class symbols), the half-inhibitory concentration (IC50) is at most 0.05 µM. The compound also came in with an IC50 in experiment [2] (class symbols) of at most 0.05 µM. On KRAS-G12D (class symbols), this compound came in with a DC50 of at most 0.05 µM and a Dmax of 80 to 100%.
On to `C#Cc1c(F)ccc2cc(O)cc(-c3ncc4c(N5CC6CCC(C5)N6)nc(OCC5(CN6CCN(CC7CCC8(CC7)CCN(C(=O)c7ccc(OC)c(N9CCC(=O)NC9=O)c7)CC8)CC6)CC5)nc4c3F)c12` [Example 14, 1-(5-(9-((4-((1-(((4-(3,8-diazabicyclo[3.2.1]octan-3-yl)-7-(8-ethynyl-7-fluoro-3-hydroxynaphthalen-1-yl)-8-fluoropyrido[4,3-d]pyrimidin-2-yl)oxy)methyl)cyclopropyl)methyl)piperazin-1-yl)methyl)-3-azaspiro[5.5]undecane-3-carbonyl)-2-methoxyphenyl)dihydropyrimidine-2,4(1H,3H)-dione], for which the IC50 in experiment [1] (class symbols) and in experiment [2] (class symbols) was at most 0.05 µM each time. On KRAS-G12D (class symbols), the DC50 was at most 0.05 µM. This compound came in with a Dmax on KRAS-G12D (class symbols) of 80 to 100%.
`C#Cc1c(F)ccc2cc(O)cc(-c3ncc4c(N5CC6CCC(C5)N6)nc(OCC5(CN6CCN(CC7CCC8(CC7)CCN(C(=O)c7ccc(C)c(N9CCC(=O)NC9=O)c7)CC8)CC6)CC5)nc4c3F)c12` [Example 36, 1-(5-(9-((4-((1-(((4-(3,8-diazabicyclo[3.2.1]octan-3-yl)-7-(8-ethynyl-7-fluoro-3-hydroxynaphthalen-1-yl)-8-fluoropyrido[4,3-d]pyrimidin-2-yl)oxy)methyl)cyclopropyl)methyl)piperazin-1-yl)methyl)-3-azaspiro[5.5]undecane-3-carbonyl)-2-methylphenyl)dihydropyrimidine-2,4(1H,3H)-dione] registered an IC50 in experiment [1] (class symbols) of at most 0.05 µM. The IC50 in experiment [2] (class symbols) was at most 0.05 µM. On KRAS-G12D (class symbols), the DC50 is at most 0.05 µM and the Dmax was 80 to 100%.
With `C#Cc1c(F)ccc2cc(O)cc(-c3ncc4c(N5CC6CCC(C5)N6)nc(OCC5(CN6CCN(CC7CCC8(CC7)CCN(C(=O)c7ccc(Cl)c(N9CCC(=O)NC9=O)c7)CC8)CC6)CC5)nc4c3F)c12` [Example 6, 1-(5-(9-((4-((1-(((4-(3,8-diazabicyclo[3.2.1]octan-3-yl)-7-(8-ethynyl-7-fluoro-3-hydroxynaphthalen-1-yl)-8-fluoropyrido[4,3-d]pyrimidin-2-yl)oxy)methyl)cyclopropyl)methyl)piperazin-1-yl)methyl)-3-azaspiro[5.5]undecane-3-carbonyl)-2-chlorophenyl)dihydropyrimidine-2,4(1H,3H)-dione], the IC50 in experiment [1] (class symbols) is at most 0.05 µM. Further, in experiment [2] (class symbols), the IC50 was at most 0.05 µM. Further, on KRAS-G12D (class symbols), the DC50 was at most 0.05 µM and the Dmax lay in the range of 80 to 100%.
Turning to `CCc1c(F)ccc2cc(O)cc(-c3ncc4c(N5CC6CCC(C5)N6)nc(OCC5(CN6CCN(CC7CCC8(CC7)CCN(C(=O)c7ccc(Cl)c(N9CCC(=O)NC9=O)c7)CC8)CC6)CC5)nc4c3F)c12` [Example 30, 1-(5-(9-((4-((1-(((4-(3,8-diazabicyclo[3.2.1]octan-3-yl)-7-(8-ethyl-7-fluoro-3-hydroxynaphthalen-1-yl)-8-fluoropyrido[4,3-d]pyrimidin-2-yl)oxy)methyl)cyclopropyl)methyl)piperazin-1-yl)methyl)-3-azaspiro[5.5]undecane-3-carbonyl)-2-chlorophenyl)dihydropyrimidine-2,4(1H,3H)-dione], the IC50 in experiment [1] (class symbols) is at most 0.05 µM. Further, the IC50 in experiment [2] (class symbols) was at most 0.05 µM. On KRAS-G12D (class symbols), the DC50 was at most 0.05 µM and the Dmax was 50 to 80%.
`CCc1cccc2cc(O)cc(-c3ncc4c(N5CC6CCC(C5)N6)nc(OCC5(CN6CCN(CCCC7CCN(C(=O)c8ccc(Cl)c(N9CCC(=O)NC9=O)c8)CC7)CC6)CC5)nc4c3F)c12` [Example 19, 1-(5-(4-(3-(4-((1-(((4-(3,8-diazabicyclo[3.2.1]octan-3-yl)-7-(8-ethyl-3-hydroxynaphthalen-1-yl)-8-fluoropyrido[4,3-d]pyrimidin-2-yl)oxy)methyl)cyclopropyl)methyl)piperazin-1-yl)propyl)piperidine-1-carbonyl)-2-chlorophenyl)dihydropyrimidine-2,4(1H,3H)-dione] registered an IC50 in experiment [1] (class symbols) of 0.1 to 0.5 µM. In experiment [2] (class symbols), this compound had an IC50 of at most 0.05 µM. Further, on KRAS-G12D (class symbols), the DC50 was in the range of 0.05 to 0.1 µM and the Dmax lay within 80 to 100%.
Taken in the same sequence, the figures for `C#Cc1c(F)ccc2cc(O)cc(-c3ncc4c(N5CC6CCC(C5)N6)nc(OCC5(CN6CCN(CC7CCC8(CC7)CCN(C(=O)c7ccc(Br)c(N9CCC(=O)NC9=O)c7)CC8)CC6)CC5)nc4c3F)c12` [Example 29, 1-(5-(9-((4-((1-(((4-(3,8-diazabicyclo[3.2.1]octan-3-yl)-7-(8-ethynyl-7-fluoro-3-hydroxynaphthalen-1-yl)-8-fluoropyrido[4,3-d]pyrimidin-2-yl)oxy)methyl)cyclopropyl)methyl)piperazin-1-yl)methyl)-3-azaspiro[5.5]undecane-3-carbonyl)-2-bromophenyl)dihydropyrimidine-2,4(1H,3H)-dione] were at most 0.05 µM, at most 0.05 µM, at most 0.05 µM and 80 to 100%.
For the compound `C#Cc1cccc2cc(O)cc(-c3ncc4c(N5CC6CCC(C5)N6)nc(OCC5(CN6CCN(CC7CCC8(CC7)CCN(C(=O)c7ccc(Cl)c(N9CCC(=O)NC9=O)c7)CC8)CC6)CC5)nc4c3F)c12` [Example 57, 1-(5-(9-((4-((1-(((4-(3,8-diazabicyclo[3.2.1]octan-3-yl)-7-(8-ethynyl-3-hydroxynaphthalen-1-yl)-8-fluoropyrido[4,3-d]pyrimidin-2-yl)oxy)methyl)cyclopropyl)methyl)piperazin-1-yl)methyl)-3-azaspiro [5.5]undecane-3-carbonyl)-2-chlorophenyl)dihydropyrimidine-2,4(1H,3H)-dione], the IC50 in experiment [1] (class symbols) and in experiment [2] (class symbols) was at most 0.05 µM in each case. The DC50 at KRAS-G12D (class symbols) was at most 0.05 µM. For the same compound, the Dmax on KRAS-G12D (class symbols) lay within 80 to 100%.
